According to patent US20070128217A1 (priority 2003, published 2007):

What was measured:
[1] = system: rabbit serum obtained by immunizing a rabbit with the SARS-CoV strain Frankfurt 1; format: binding; set-up: Binding of a rabbit serum to linear peptides / Binding of a rabbit serum to looped peptides / Rabbit serum linear peptides / Rabbit serum looped peptides / Binding of a rabbit serum to linear peptides of protein N of SARS-CoV Urbani (Rabbit serum linear peptides) / Binding of a rabbit serum to looped/cyclic peptides of protein N of SARS-CoV Urbani (Rabbit serum looped peptides): unit not given here
[2] = system: control sera (pooled serum of ten healthy LUMC hospital workers; commercial negative donor pooled serum from the Dutch bloodbank); format: binding, human; set-up: Binding of Control serum LUMC to linear peptides / Binding of Control serum Blood-bank to linear peptides / Binding of Control serum LUMC to looped peptides / Binding of Control Serum Blood-Bank to Looped peptides / Binding of Control serum LUMC to linear peptides of the protein M of SARS-CoV Urbani / Binding of Control serum Blood-bank to linear peptides of the protein M of SARS-CoV Urbani / Binding of Control serum LUMC to looped peptides of the protein M of SARS-CoV Urbani / Binding of Control Serum Blood-Bank to Looped peptides of the protein M of SARS-CoV Urbani: unit not given here
[3] = system: antibodies in sera from SARS patients (sera 1a, 1b, 2, 6, 37, 62, London, SARS-yellow, SARS-green); format: binding, human; set-up: Binding of serum 6 to linear peptides of protein X1 of SARS-CoV Urbani / Binding of serum 37 to linear peptides of protein X1 of SARS-CoV Urbani / Binding of serum 6 to looped/cyclic peptide (PEPSCAN-ELISA) / Binding of serum 37 to looped/cyclic peptide (PEPSCAN-ELISA) / Binding of serum 37 to looped/cyclic peptides of protein X1 of SARS-CoV Urbani / Binding of serum 6 to linear peptides of protein X2 / Binding of serum 37 to linear peptides of protein X2 / Binding of serum 37 to looped/cyclic peptides of protein X2 of SARS-CoV Urbani / Binding of serum 6 to linear peptides of protein M of SARS-CoV Urbani / Binding of serum 37 to linear peptides of protein M of SARS-CoV Urbani / Binding of serum 6 to looped/cyclic peptides of protein M of SARS-CoV Urbani / Binding of serum 37 to looped/cyclic peptides of protein M of SARS-CoV Urbani / Binding of serum 6 to linear peptides of protein X3 of SARS-CoV Urbani / Binding of serum 37 to linear peptides of protein X3 of SARS-CoV Urbani / Binding of serum 37 to looped/cyclic peptides of protein X3 of SARS-CoV Urbani / Binding of serum 6 to linear peptides of protein X4 of SARS-CoV Urbani / Binding of serum 37 to linear peptides of protein X4 of SARS-CoV Urbani / Binding of serum 37 to looped/cyclic peptides of protein X4 of SARS-CoV Urbani / Binding of serum 6 to linear peptides of protein X5 of SARS-CoV Urbani / Binding of serum 37 to linear peptides of protein X5 of SARS-CoV Urbani / Binding of serum 37 to looped/cyclic peptides of protein X5 of SARS-CoV Urbani / Binding of serum 6 to linear peptides of protein N of SARS-CoV Urbani / Binding of serum 37 to linear peptides of protein N of SARS-CoV Urbani / Binding of serum 6 to linear peptide (PEPSCAN-ELISA) / Binding of serum 1a to looped/cyclic peptides of protein N of SARS-CoV Urbani / Binding of serum 1b to looped/cyclic peptides of protein N of SARS-CoV Urbani / Binding of serum 2 to looped/cyclic peptides of protein N of SARS-CoV Urbani / Binding of serum 6 to looped/cyclic peptides of protein N of SARS-CoV Urbani / Binding of serum 37 to looped/cyclic peptides of protein N of SARS-CoV Urbani / Binding of serum 62 to looped/cyclic peptides of protein N of SARS-CoV Urbani / Binding of serum London to looped/cyclic peptides of protein N of SARS-CoV Urbani / Binding of serum SARS-green to looped/cyclic peptides of protein N of SARS-CoV Urbani: unit not given here

LLYDANYFVCWHTHN
Binding of a rabbit serum to linear peptides [1]: 0.1
Binding of a rabbit serum to looped peptides [1]: 0.5
Binding of Control Serum Blood-Bank to Looped peptides [2]: 0.6
Binding of Control serum Blood-bank to linear peptides [2]: 0.8
Binding of Control serum LUMC to linear peptides [2]: 0.7
Binding of Control serum LUMC to looped peptides [2]: 0.5
Binding of serum 1a to linear peptides of protein X1 of SARS-CoV Urbani [3]: 0.9
Binding of serum 1a to looped/cyclic peptide (PEPSCAN-ELISA) [3]: 0.6
Binding of serum 1b to linear peptides of protein X1 of SARS-CoV Urbani [3]: 0.7
Binding of serum 1b to looped/cyclic peptide (PEPSCAN-ELISA) [3]: 0.5
Binding of serum 2 to linear peptides of protein X1 of SARS-CoV Urbani [3]: 0.6
Binding of serum 2 to looped/cyclic peptide (PEPSCAN-ELISA) [3]: 0.4
Binding of serum 6 to linear peptides of protein X1 of SARS-CoV Urbani [3]: 0.7
Binding of serum 6 to looped/cyclic peptide (PEPSCAN-ELISA) [3]: 0.4
Binding of serum 37 to linear peptides of protein X1 of SARS-CoV Urbani [3]: 0.7
Binding of serum 37 to looped/cyclic peptide (PEPSCAN-ELISA) [3]: 0.6
Binding of serum 62 to linear peptides of protein X1 of SARS-CoV Urbani [3]: 0.8
Binding of serum 62 to looped/cyclic peptide (PEPSCAN-ELISA) [3]: 0.6
Binding of serum London to linear peptides of protein X1 of SARS-CoV Urbani [3]: 0.4
Binding of serum London to looped/cyclic peptide (PEPSCAN-ELISA) [3]: 0.2
Binding of serum SARS-green to linear peptides of protein X1 of SARS-CoV Urbani [3]: 0.4
Binding of serum SARS-green to looped/cyclic peptide (PEPSCAN-ELISA) [3]: 0.3
Binding of serum SARS-yellow to linear peptides of protein X1 of SARS-CoV Urbani [3]: 0.5
Binding of serum SARS-yellow to looped/cyclic peptide (PEPSCAN-ELISA) [3]: 0.4

LMESELVIGAVIIRG
Rabbit serum linear peptides [1]: 0.4
Rabbit serum looped peptides [1]: 0.2
Binding of Control Serum Blood-Bank to Looped peptides of the protein M of SARS-CoV Urbani [2]: 0.7
Binding of Control serum Blood-bank to linear peptides of the protein M of SARS-CoV Urbani [2]: 0.8
Binding of Control serum LUMC to linear peptides of the protein M of SARS-CoV Urbani [2]: 0.5
Binding of Control serum LUMC to looped peptides of the protein M of SARS-CoV Urbani [2]: 0.6
Binding of serum 1a to linear peptides of protein M of SARS-CoV Urbani [3]: 0.7
Binding of serum 1a to looped/cyclic peptides of protein M of SARS-CoV Urbani [3]: 0.6
Binding of serum 1b to linear peptides of protein M of SARS-CoV Urbani [3]: 0.5
Binding of serum 1b to looped/cyclic peptides of protein M of SARS-CoV Urbani [3]: 0.6
Binding of serum 2 to linear peptides of protein M of SARS-CoV Urbani [3]: 0.7
Binding of serum 2 to looped/cyclic peptides of protein M of SARS-CoV Urbani [3]: 0.5
Binding of serum 6 to linear peptides of protein M of SARS-CoV Urbani [3]: 0.3
Binding of serum 6 to looped/cyclic peptides of protein M of SARS-CoV Urbani [3]: 0.4
Binding of serum 37 to linear peptides of protein M of SARS-CoV Urbani [3]: 0.9
Binding of serum 37 to looped/cyclic peptides of protein M of SARS-CoV Urbani [3]: 0.6
Binding of serum 62 to linear peptides of protein M of SARS-CoV Urbani [3]: 0.8
Binding of serum 62 to looped/cyclic peptides of protein M of SARS-CoV Urbani [3]: 0.6
Binding of serum London to linear peptides of protein M of SARS-CoV Urbani [3]: 0.3
Binding of serum London to looped/cyclic peptides of protein M of SARS-CoV Urbani [3]: 0.2
Binding of serum SARS-green to linear peptides of protein M of SARS-CoV Urbani [3]: 0.3
Binding of serum SARS-green to looped/cyclic peptides of protein M of SARS-CoV Urbani [3]: 0.3
Binding of serum SARS-yellow to linear peptides of protein M of SARS-CoV Urbani [3]: 0.1
Binding of serum SARS-yellow to looped/cyclic peptides of protein M of SARS-CoV Urbani [3]: 0.5

LMWLSYFVASFRLFA
Rabbit serum linear peptides [1]: 0.0
Rabbit serum looped peptides [1]: 0.3
Binding of Control Serum Blood-Bank to Looped peptides of the protein M of SARS-CoV Urbani [2]: 0.6
Binding of Control serum Blood-bank to linear peptides of the protein M of SARS-CoV Urbani [2]: 0.5
Binding of Control serum LUMC to linear peptides of the protein M of SARS-CoV Urbani [2]: 0.4
Binding of Control serum LUMC to looped peptides of the protein M of SARS-CoV Urbani [2]: 0.6
Binding of serum 1a to linear peptides of protein M of SARS-CoV Urbani [3]: 0.6
Binding of serum 1b to linear peptides of protein M of SARS-CoV Urbani [3]: 0.4
Binding of serum 2 to linear peptides of protein M of SARS-CoV Urbani [3]: 0.4
Binding of serum 6 to linear peptides of protein M of SARS-CoV Urbani [3]: 0.3
Binding of serum 37 to linear peptides of protein M of SARS-CoV Urbani [3]: 0.3
Binding of serum 62 to linear peptides of protein M of SARS-CoV Urbani [3]: 0.4
Binding of serum London to linear peptides of protein M of SARS-CoV Urbani [3]: 0.3
Binding of serum SARS-green to linear peptides of protein M of SARS-CoV Urbani [3]: 0.5
Binding of serum SARS-yellow to linear peptides of protein M of SARS-CoV Urbani [3]: 0.1
Recognition of the peptide by sera of SARS-CoV infected individuals, and form (linear, looped/cyclic) in which it is recognized [3]: recognized in looped/cyclic form
